Among the data in patent US20260297070A1, “CYCLIC [COMPOUND LEFT OUT] WRN INHIBITORS” (Nimbus Wadjet, Inc., priority 2023, published 2026) are IC50 values, retold here.

The experiment deals with T1, human Werner helicase (WRN-BV08, Uniprot Q14191, amino acids 517-1235 with L1074F point mutation) (Homo sapiens, UniProt Q14191, L1074F).
T1 construct: Uniprot Q14191, amino acids 517-1235 with L1074F point mutation; TEV-cleavable 8×His (C, cleaved yes); made in house; host or cells: Sf9 insect cells (baculovirus)
T1 sequence (Q14191 with tags, fused parts or gaps L1074F limits assumed): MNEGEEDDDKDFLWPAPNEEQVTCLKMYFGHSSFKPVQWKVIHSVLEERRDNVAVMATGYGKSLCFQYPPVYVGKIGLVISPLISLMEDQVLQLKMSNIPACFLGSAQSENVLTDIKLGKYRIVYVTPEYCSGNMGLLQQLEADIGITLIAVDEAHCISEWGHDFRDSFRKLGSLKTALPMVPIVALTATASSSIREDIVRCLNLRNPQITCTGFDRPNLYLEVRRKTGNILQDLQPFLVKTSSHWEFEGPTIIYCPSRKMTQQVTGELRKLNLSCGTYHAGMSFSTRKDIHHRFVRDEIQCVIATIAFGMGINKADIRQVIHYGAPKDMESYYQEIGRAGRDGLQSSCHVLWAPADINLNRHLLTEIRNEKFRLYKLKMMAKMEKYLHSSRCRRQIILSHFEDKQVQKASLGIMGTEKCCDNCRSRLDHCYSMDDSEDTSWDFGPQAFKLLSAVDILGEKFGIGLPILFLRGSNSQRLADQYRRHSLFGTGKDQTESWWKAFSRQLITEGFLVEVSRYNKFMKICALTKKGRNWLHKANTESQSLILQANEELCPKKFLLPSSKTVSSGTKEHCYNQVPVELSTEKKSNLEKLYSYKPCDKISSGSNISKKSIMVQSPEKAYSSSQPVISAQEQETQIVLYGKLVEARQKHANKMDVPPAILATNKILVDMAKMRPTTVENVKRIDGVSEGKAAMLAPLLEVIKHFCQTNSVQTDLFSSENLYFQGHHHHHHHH
The experiment can be described thus: WRN (BV08) ADP-Glo Assay. It counts as biochemical. Conditions: 0.15 nM WRN, 5 μM ATP, 0.1 nM DNA duplex, 15 min preincubation, 60 min at 25° C., pH 7.5, 1% DMSO; read-out: ADP-Glo_hWRN_IC50. Put shortly: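 Helicase ATPase activity is measured at 25 °C over 60 min using 0.15 nM enzyme, 5 μM ATP and 0.1 nM DNA duplex, final DMSO 1%. ADP production is detected by luminescence, with IC50 derived by curve fitting.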
Take `O=C(Cc1cc2ccccc2s1)N(Cc1ccncc1)C1C=CS(=O)(=O)C1` (stereo not drawn) [I-301, 2-(1-benzothiophen-2-yl)-N-(1,1-dioxo-2,3-dihydro-1lambda6-thiophen-3-yl)-N-[(pyridin-4-yl)methyl]acetamide]: the IC50 was 10 to 50 µM.
For the compound `CC(=O)Nc1ccc(CN(C(=O)Cc2ccc(-n3cccc3)cc2)C2C=CS(=O)(=O)C2)cc1` (stereo not drawn) [I-302, N-(1,1-dioxo-2,3-dihydro-1lambda6-thiophen-3-yl)-N-[(4-acetamidophenyl)methyl]-2-[4-(1H-pyrrol-1-yl)phenyl]acetamide], the IC50 was in the range of 10 to 50 µM.
`O=C(Cc1ccc(-n2cccc2)cc1)N(Cc1ccc(O)cc1)C1C=CS(=O)(=O)C1` (stereo not drawn) [I-303, N-(1,1-dioxo-2,3-dihydro-1lambda6-thiophen-3-yl)-N-[(4-hydroxyphenyl)methyl]-2-[4-(1H-pyrrol-1-yl)phenyl]acetamide]: the IC50 was in the range of 10 to 50 µM.
As to `O=C(CCc1c[nH]c2cc(Br)ccc12)N(Cc1ccncc1)C1C=CS(=O)(=O)C1` (stereo not drawn) [I-304, 3-(6-bromo-1H-indol-3-yl)-N-(1,1-dioxo-2,3-dihydro-1lambda6-thiophen-3-yl)-N-[(pyridin-4-yl)methyl]propanamide], the IC50 is 10 to 50 µM.
The value for `O=C(Cc1ccc(-n2ccc3ccccc32)cc1)N(Cc1ccncc1)C1C=CS(=O)(=O)C1` (stereo not drawn) [I-305, N-(1,1-dioxo-2,3-dihydro-1lambda6-thiophen-3-yl)-2-[4-(1H-indol-1-yl)phenyl]-N-[(pyridin-4-yl)methyl]acetamide] was 10 to 50 µM.
With `O=C(CCc1c[nH]c2cc(Cl)ccc12)N(Cc1ccncc1)C1C=CS(=O)(=O)C1` (stereo not drawn) [I-306, 3-(6-chloro-1H-indol-3-yl)-N-(1,1-dioxo-2,3-dihydro-1lambda6-thiophen-3-yl)-N-[(pyridin-4-yl)methyl]propanamide], the IC50 is 10 to 50 µM.
As to `CN(C)C(C(=O)N(Cc1ccnc(C(C)(C)O)c1)C1C=CS(=O)(=O)C1)c1ccc(-c2ccc(F)c(F)c2)cc1F` (stereo not drawn) [I-307, 2-(dimethylamino)-N-(1,1-dioxo-2,3-dihydro-1lambda6-thiophen-3-yl)-N-{[2-(2-hydroxypropan-2-yl)pyridin-4-yl]methyl}-2-{3,3′,4′-trifluoro-[1,1′-biphenyl]-4-yl}acetamide], the IC50 fell in the range of 10 to 50 µM.
For `CCc1ccc(CC(=O)N(Cc2ccncc2)C2C=CS(=O)(=O)C2)cc1` (stereo not drawn) [I-308, N-(1,1-dioxo-2,3-dihydro-1lambda6-thiophen-3-yl)-2-(4-ethylphenyl)-N-[(pyridin-4-yl)methyl]acetamide], the IC50 lay in the range of 10 to 50 µM.
`CC(C)(C)c1ccc(CC(=O)N(Cc2ccncc2)C2C=CS(=O)(=O)C2)cc1` (stereo not drawn) [I-310, 2-(4-tert-butylphenyl)-N-(1,1-dioxo-2,3-dihydro-1lambda6-thiophen-3-yl)-N-[(pyridin-4-yl)methyl]acetamide]: the IC50 was 10 to 50 µM.
For the compound `COc1cc(CN(C(=O)Cc2ccc(S(F)(F)(F)(F)F)cc2)[C@H]2C=CS(=O)(=O)C2)ccn1` [I-311, N-[(3S)-1,1-dioxo-2,3-dihydro-1lambda6-thiophen-3-yl]-N-[(2-methoxypyridin-4-yl)methyl]-2-[4-(pentafluoro-lambda6-sulfanyl)phenyl]acetamide], the IC50 is more than 50 µM.
As for `Cc1cnccc1CN(C(=O)Cc1ccc(-n2cccc2)cc1)C1C=CS(=O)(=O)C1` (stereo not drawn) [I-313, N-(1,1-dioxo-2,3-dihydro-1lambda6-thiophen-3-yl)-N-[(3-methylpyridin-4-yl)methyl]-2-[4-(1H-pyrrol-1-yl)phenyl]acetamide], the IC50 was in the range of 10 to 50 µM.
Consider `O=C(Cc1ccc(-n2cccc2)cc1)N(Cc1cccc(B(O)O)c1)C1C=CS(=O)(=O)C1` (stereo not drawn) [I-314, (3-{[N-(1,1-dioxo-2,3-dihydro-1lambda6-thiophen-3-yl)-2-[4-(1H-pyrrol-1-yl)phenyl]acetamido]methyl}phenyl)boronic acid], for which the IC50 lay in the range of 10 to 50 µM.
Consider `O=C(Cc1ccc2ccccc2c1)N(Cc1ccncc1)C1C=CS(=O)(=O)C1` (stereo not drawn) [I-315, N-(1,1-dioxo-2,3-dihydro-1lambda6-thiophen-3-yl)-2-(naphthalen-2-yl)-N-[(pyridin-4-yl)methyl]acetamide], for which the IC50 is 10 to 50 µM.
Consider `O=C(Cc1ccc(-n2cccc2)cc1)N(Cc1cccc2nccnc12)C1C=CS(=O)(=O)C1` (stereo not drawn) [I-316, N-(1,1-dioxo-2,3-dihydro-1lambda6-thiophen-3-yl)-2-[4-(1H-pyrrol-1-yl)phenyl]-N-[(quinoxalin-5-yl)methyl]acetamide], for which the IC50 was 10 to 50 µM.
Consider `O=C(Cc1ccc(C(F)F)cc1)N(Cc1ccncc1)C1C=CS(=O)(=O)C1` (stereo not drawn) [I-317, 2-[4-(difluoromethyl)phenyl]-N-(1,1-dioxo-2,3-dihydro-1lambda6-thiophen-3-yl)-N-[(pyridin-4-yl)methyl]acetamide], for which the IC50 was 10 to 50 µM.
For `NC(=O)c1cccc(CN(C(=O)Cc2ccc(-n3cccc3)cc2)C2C=CS(=O)(=O)C2)c1` (stereo not drawn) [I-318, 3-{[N-(1,1-dioxo-2,3-dihydro-1lambda6-thiophen-3-yl)-2-[4-(1H-pyrrol-1-yl)phenyl]acetamido]methyl}benzamide], the IC50 was 10 to 50 µM.
The value for `O=C(Cc1ccc(-n2cccc2)cn1)N(Cc1ccncc1)C1C=CS(=O)(=O)C1` (stereo not drawn) [I-319, N-(1,1-dioxo-2,3-dihydro-1lambda6-thiophen-3-yl)-N-[(pyridin-4-yl)methyl]-2-[5-(1H-pyrrol-1-yl)pyridin-2-yl]acetamide] was 10 to 50 µM; that for `Cc1scnc1-c1ccc(CC(=O)N(Cc2ccncc2)C2C=CS(=O)(=O)C2)c(F)c1` (stereo not drawn) [I-320, N-(1,1-dioxo-2,3-dihydro-1lambda6-thiophen-3-yl)-2-[2-fluoro-4-(5-methyl-1,3-thiazol-4-yl)phenyl]-N-[(pyridin-4-yl)methyl]acetamide] was 10 to 50 µM; that for `O=C(Cc1ccc(-n2cccc2)cc1)N(Cc1ccc(B(O)O)cc1)C1C=CS(=O)(=O)C1` (stereo not drawn) [I-321, (4-((2-(4-(1H-pyrrol-1-yl)phenyl)-N-(1,1-dioxido-2,3-dihydrothiophen-3-yl)acetamido)methyl)phenyl)boronic acid] was 10 to 50 µM.
For the compound `CS(=O)(=O)c1ccccc1CN(C(=O)Cc1ccc(-n2cccc2)cc1)C1C=CS(=O)(=O)C1` (stereo not drawn) [I-322, N-(1,1-dioxo-2,3-dihydro-1lambda6-thiophen-3-yl)-N-[(2-methanesulfonylphenyl)methyl]-2-[4-(1H-pyrrol-1-yl)phenyl]acetamide], the IC50 fell in the range of 10 to 50 µM.
Turning to `O=C(Cc1ccc(-c2ccccc2)cc1)N(Cc1ccncc1)C1C=CS(=O)(=O)C1` (stereo not drawn) [I-323, 2-{[1,1′-biphenyl]-4-yl}-N-(1,1-dioxo-2,3-dihydro-1lambda6-thiophen-3-yl)-N-[(pyridin-4-yl)methyl]acetamide], the IC50 lay within 10 to 50 µM.
Regarding `COCC(C(=O)N(Cc1ccnc(C(C)(C)O)c1)C1C=CS(=O)(=O)C1)n1cc(-c2ccccc2)cn1` (stereo not drawn) [I-324, N-(1,1-dioxo-2,3-dihydro-1lambda6-thiophen-3-yl)-N-{[2-(2-hydroxypropan-2-yl)pyridin-4-yl]methyl}-3-methoxy-2-(4-phenyl-1H-pyrazol-1-yl)propanamide], the IC50 was in the range of 10 to 50 µM.
Regarding `O=C(Cn1cnc(-c2ccccc2)cc1=O)N(Cc1ccncc1)C1C=CS(=O)(=O)C1` (stereo not drawn) [I-325, N-(1,1-dioxo-2,3-dihydro-1lambda6-thiophen-3-yl)-2-(6-oxo-4-phenyl-1,6-dihydropyrimidin-1-yl)-N-[(pyridin-4-yl)methyl]acetamide], the IC50 was in the range of 10 to 50 µM.
With `O=C(Cn1nc(-c2ccccc2)ccc1=O)N(Cc1ccncc1)C1C=CS(=O)(=O)C1` (stereo not drawn) [I-326, N-(1,1-dioxo-2,3-dihydro-1lambda6-thiophen-3-yl)-2-(6-oxo-3-phenyl-1,6-dihydropyridazin-1-yl)-N-[(pyridin-4-yl)methyl]acetamide], the IC50 was 10 to 50 µM.
In the case of `O=C(Cc1ccc(-n2cccc2)c(F)c1)N(Cc1ccncc1)C1C=CS(=O)(=O)C1` (stereo not drawn) [I-327, N-(1,1-dioxo-2,3-dihydro-1lambda6-thiophen-3-yl)-2-[3-fluoro-4-(1H-pyrrol-1-yl)phenyl]-N-[(pyridin-4-yl)methyl]acetamide], the IC50 was 10 to 50 µM.
Consider `O=C(C(c1ccc(-c2ccc(F)cc2)cc1)N1CCCC1=O)N(Cc1ccncc1)C1C=CS(=O)(=O)C1` (stereo not drawn) [I-328, N-(1,1-dioxo-2,3-dihydro-1lambda6-thiophen-3-yl)-2-{4′-fluoro-[1,1′-biphenyl]-4-yl}-2-(2-oxopyrrolidin-1-yl)-N-[(pyridin-4-yl)methyl]acetamide], for which the IC50 was in the range of 10 to 50 µM.
Next, `O=C(Cc1ccc(OC(F)F)cc1)N(Cc1ccncc1)C1C=CS(=O)(=O)C1` (stereo not drawn) [I-331, 2-[4-(difluoromethoxy)phenyl]-N-(1,1-dioxo-2,3-dihydro-1lambda6-thiophen-3-yl)-N-[(pyridin-4-yl)methyl]acetamide]: 10 to 50 µM; `Cc1cccc(-c2nc(CC(=O)N(Cc3ccncc3)C3C=CS(=O)(=O)C3)cs2)c1` (stereo not drawn) [I-333, N-(1,1-dioxo-2,3-dihydro-1lambda6-thiophen-3-yl)-2-[2-(3-methylphenyl)-1,3-thiazol-4-yl]-N-[(pyridin-4-yl)methyl]acetamide]: more than 50 µM; `O=C(Cc1ccc(-c2ccc(F)cc2C(F)F)cc1)N(Cc1ccncc1)C1C=CS(=O)(=O)C1` (stereo not drawn) [I-334, 2-[2′-(difluoromethyl)-4′-fluoro-[1,1′-biphenyl]-4-yl]-N-(1,1-dioxo-2,3-dihydro-1lambda6-thiophen-3-yl)-N-[(pyridin-4-yl)methyl]acetamide]: 10 to 50 µM.
With `Cc1nc(CN(C(=O)Cc2ccc(-n3cccc3)cc2)C2C=CS(=O)(=O)C2)cs1` (stereo not drawn) [I-335, N-(1,1-dioxo-2,3-dihydro-1lambda6-thiophen-3-yl)-N-[(2-methyl-1,3-thiazol-4-yl)methyl]-2-[4-(1H-pyrrol-1-yl)phenyl]acetamide], the IC50 is 10 to 50 µM.
